Laboratory results: patent US10800792B2, “Inhibitors of Bruton's tyrosine kinase and method of their use” (JANSSEN PHARMACEUTICA NV, priority 2015, dated 2020)

Biological target: unphosphorylated-BTK kinase domain (UP-BTK), GST-tagged human BTK (389-659aa) (Homo sapiens (Human), UniProt Q06187)
Assay: BTK kinase Lanthascreen binding assay
Conditions: pIC50 = negative log of the IC50 in molar
Procedure, shortened: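 Compound binding to the unphosphorylated kinase domain was monitored by displacement of a fluorescently labelled tracer in a Lanthascreen format. Potency is given as pIC50, the negative log of the molar IC50.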

[1] = unphosphorylated-BTK kinase domain, 50 nM Tracer 236, 60 minutes
[2] = 60 minutes incubation, 50 nM Tracer 236

unphosphorylated-BTK kinase domain (UP-BTK), GST-tagged human BTK (389-659aa), sequence (Q06187 389-659): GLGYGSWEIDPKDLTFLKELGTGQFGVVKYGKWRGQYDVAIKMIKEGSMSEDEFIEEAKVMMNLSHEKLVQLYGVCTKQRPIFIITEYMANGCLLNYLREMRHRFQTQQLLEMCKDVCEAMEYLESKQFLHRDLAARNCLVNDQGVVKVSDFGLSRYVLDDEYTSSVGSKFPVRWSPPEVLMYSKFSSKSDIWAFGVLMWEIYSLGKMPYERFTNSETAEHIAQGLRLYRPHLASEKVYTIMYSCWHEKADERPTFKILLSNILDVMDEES

Compound	BTK_I_binding pIC50 [2]	further results
C=CC(=O)N1CCC[C@@H](NC(=O)c2sc3nccc4c3c2NC(=O)N4c2cccc(Cl)c2)C1 [Example 294, (R)—N-(1-Acryloylpiperidin-3-yl)-5-(3-chlorophenyl)-4-oxo-4,5-dihydro-3H-1-thia-3,5,8-triazaacenaphthylene-2-carboxamide]	–	BTK_I_binding pIC50 [1]: 6.1
C=CC(=O)N1C[C@H](O)C[C@@H](NC(=O)c2sc3nccc4c3c2NC(=O)N4c2ccc(Oc3ccccc3)cc2C)C1 [Example 6, N-((3R,5R)-1-Acryloyl-5-hydroxypiperidin-3-yl)-5-(2-methyl-4-phenoxyphenyl)-4-oxo-4,5-dihydro-3H-1-thia-3,5,8-triazaacenaphthylene-2-carboxamide]	–	IC50 (60 minutes incubation, 50 nM Tracer 236, read-out: BTK_I_binding pIC50 (converted)): 12.6 nM
CO[C@H]1CNC[C@@H]1NC(=O)c1sc2nccc3c2c1NC(=O)N3c1ccc(Oc2ccccc2)cc1C [Example 245, N-((3S,4S)-4-Methoxypyrrolidin-3-yl)-5-(2-methyl-4-phenoxyphenyl)-4-oxo-4,5-dihydro-3H-1-thia-3,5,8-triazaacenaphthylene-2-carboxamide]	6.6	–
Cc1cc(Oc2ccccc2)ccc1N1C(=O)Nc2c(C(=O)N[C@@H]3CCN(C)C3)sc3nccc1c23 [Example 117, (R)-5-(2-Methyl-4-phenoxyphenyl)-N-(1-methylpyrrolidin-3-yl)-4-oxo-4,5-dihydro-3H-1-thia-3,5,8-triazaacenaphthylene-2-carboxamide]	6.9	–
CC(=O)N1CCC[C@H]1/C=C(\C#N)C(=O)N1CCC[C@@H](NC(=O)c2sc3nccc4c3c2NC(=O)N4c2ccc(Oc3ccccc3)cc2C)C1 [Example 681, N—((R)-1-((*E)-3-((S)-1-Acetylpyrrolidin-2-yl)-2-cyanoacryloyl)piperidin-3-yl)-5-(2-methyl-4-phenoxyphenyl)-4-oxo-4,5-dihydro-3H-1-thia-3,5,8-triazaacenaphthylene-2-carboxamide]	–	BTK_I_binding pIC50 (Lanthascreen tracer competition, 60 minutes incubation): 7.7
C=CC(=O)N1CCC[C@@H](NC(=O)c2sc3nccc4c3c2NC(=O)N4c2ccc(OC)cc2)C1 [Example 254]	6.6	–
Cc1cc(Oc2ccccc2)ccc1N1C(=O)Nc2c(C(=O)N[C@@H]3CCCN(C(=O)CCN)C3)sc3nccc1c23 [Example 163, (R)—N-(1-(3-Aminopropanoyl)piperidin-3-yl)-5-(2-methyl-4-phenoxyphenyl)-4-oxo-4,5-dihydro-3H-1-thia-3,5,8-triazaacenaphthylene-2-carboxamide]	7.2	–
Cc1cc(Oc2ccccc2)ccc1N1C(=O)Nc2c(C(=O)NC3CCN(C(=O)CC#N)CC3)sc3nccc1c23 [Example 944, N-(1-(2-Cyanoacetyl)piperidin-4-yl)-5-(2-methyl-4-phenoxyphenyl)-4-oxo-4,5-dihydro-3H-1-thia-3,5,8-triazaacenaphthylene-2-carboxamide]	–	BTK_I_binding pIC50 (unphosphorylated-BTK kinase domain, 60 minutes incubation, 50 nM Tracer 236): 5.6
C/C=C/C(=O)N1CCC[C@@H](NC(=O)c2sc3nccc4c3c2NC(=O)N4c2ccc(Oc3ccccc3)cc2C)C1 [Example 105, (R,E)-N-(1-(But-2-enoyl)piperidin-3-yl)-5-(2-methyl-4-phenoxyphenyl)-4-oxo-4,5-dihydro-3H-1-thia-3,5,8-triazaacenaphthylene-2-carboxamide]	6.9	–
COCCC(=O)N1CCC[C@@H](NC(=O)c2sc3nccc4c3c2NC(=O)N4c2ccc(Oc3ccccc3)cc2F)C1 [Example 215, (R)-5-(2-Fluoro-4-phenoxyphenyl)-N-(1-(3-methoxypropanoyl)piperidin-3-yl)-4-oxo-4,5-dihydro-3H-1-thia-3,5,8-triazaacenaphthylene-2-carboxamide]	7.2	–
C=CS(=O)(=O)N1CC[C@@H](NC(=O)c2sc3nccc4c3c2NC(=O)N4c2ccc(Oc3ccccc3)cc2C)C1 [Example 369, (R)-5-(2-Methyl-4-phenoxyphenyl)-4-oxo-N-(1-(vinylsulfonyl)pyrrolidin-3-yl)-4,5-dihydro-3H-1-thia-3,5,8-triazaacenaphthylene-2-carboxamide]	–	BTK_I_binding pIC50 [1]: 7.8
